Results on 1 compound are retold here after patent US20250006334A1, “SIROLIMUS PHARMACOKINETICS GUIDED AND MODEL INFORMED PRECISION DOSING” (Children's Hospital Medical Center, priority 2023, published 2025).

A short description of this data set: Observed sirolimus trough blood concentration in infant patients under model-informed precision dosing. It counts as in vivo, human. The source says: After therapy has been initiated using the initial dose, data may be collected 103 on the impact of the therapy. This may be done, for example, by, 7-14 days after the start of therapy, taking a pre-dose trough blood sample which could then be sent to a lab to determine a sirolimus blood concentration. Alternatively, in some cases additional samples may be taken. For example, in a case where an abbreviated area under the curve PK consult is ordered, data collection 103 may include taking three whole blood samples: a first sample taken 15-30 minutes before a dose, a second sample taken 45-75 minutes after the dose, and a third sample taken 150-210 minutes after the dose. A laboratory could then process the sample(s), and the sirolimus concentration could be reported back. For example, in a case where an application for recommending individualized sirolimus doses was implemented based on this disclosure, the lab could report the results back through an API exposed by a web portal supported by the application, or could send the results back through an external communication channel (e.g., secure email) to the user of the application, and that user could then input the results to the application himself or herself.
However the model refinement 105 is performed, once a refined model is available, it may be applied 106 to determine a personalized dose for the patient. […]

As to `CO[C@H]1C[C@@H]2CC[C@@H](C)[C@@](O)(O2)C(=O)C(=O)N2CCCC[C@H]2C(=O)O[C@H]([C@H](C)C[C@@H]2CC[C@@H](O)[C@H](OC)C2)CC(=O)[C@H](C)/C=C(\C)[C@@H](O)[C@@H](OC)C(=O)[C@H](C)C[C@H](C)/C=C/C=C/C=C/1C` [sirolimus], the “observed sirolimus trough concentration at six months of age” value (FIG. 2, infant who started sirolimus at 2 months of age, doses predicted from weight, PMA and concentration measured at three months, target range 10-12 ng/mL) is 9.3 ng/mL. Further, the “observed sirolimus trough concentration at 6 months” value (FIG. 3, prediction from age 4 months to 6 months based on concentration at 4 months, weight and PMA, target trough range 10-12 ng/mL) was 10.5 ng/mL.
